{"source": "patent US8802597B2", "about": "“Herbicidal pyrimidines” (E I du Pont de Nemours and Company, priority 2003, dated 2014)", "format_in_all_cases": "in vivo", "key": {"[1]": {"test_system": "morningglory (Ipomoea coccinea)", "test": "Test B pre/postemergence", "settings": "Ipomoea; for pest or weed control at 4 g/ha: 4 g ai/ha; for pest or weed control at 62 g/ha: 62 g ai/ha", "outline": "(§1)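 Test chemicals in a non-phytotoxic solvent mixture with surfactant were applied preemergence to planted seeds and postemergence to plants 2 to 18 cm tall (1- to 4-leaf stage). After 13 to 15 days in a greenhouse, injury was visually rated against untreated controls on a 0 to 100 scale.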"}, "[2]": {"test_system": "velvetleaf (Abutilon theophrasti)", "test": "Test B pre/postemergence", "settings": "Abutilon theophrasti; for pest or weed control at 4 g/ha: 4 g ai/ha; for pest or weed control at 62 g/ha: 62 g ai/ha", "outline": "as §1"}, "[3]": {"test_system": "Surinam grass (Brachiaria decumbens)", "test": "Test B pre/postemergence", "settings": "Urochloa decumbens; for pest or weed control at 4 g/ha: 4 g ai/ha; for pest or weed control at 62 g/ha: 62 g ai/ha", "outline": "as §1"}, "corn (Zea mays)": {"test_system": "corn (Zea mays)", "test": "Test B pre/postemergence", "settings": "Zea mays", "outline": "as §1"}, "[4]": {"test_system": "barnyardgrass (Echinochloa crus-galli)", "test": "Test B pre/postemergence", "settings": "Echinochloa crus-galli, scale 0 to 100 (0 no effect, 100 complete control); for pest or weed control at 4 g/ha: 4 g ai/ha; for pest or weed control at 62 g/ha: 62 g ai/ha", "outline": "as §1"}, "[5]": {"test_system": "giant foxtail (Setaria faberii)", "test": "Test B pre/postemergence", "settings": "Setaria faberi; for pest or weed control at 4 g/ha: 4 g ai/ha; for pest or weed control at 62 g/ha: 62 g ai/ha", "outline": "as §1"}, "[6]": {"test_system": "lambsquarters (Chenopodium album)", "test": "Test B pre/postemergence", "settings": "Chenopodium album; for pest or weed control at 4 g/ha: 4 g ai/ha; for pest or weed control at 62 g/ha: 62 g ai/ha", "outline": "as §1"}, "[7]": {"test_system": "cocklebur (Xanthium strumarium)", "test": "Test B pre/postemergence", "settings": "Xanthium strumarium; for pest or weed control at 4 g/ha: 4 g ai/ha; for pest or weed control at 62 g/ha: 62 g ai/ha", "outline": "as §1"}, "[8]": {"test_system": "wheat (Triticum aestivum)", "test": "Test B pre/postemergence", "settings": "Triticum aestivum, scale 0 to 100 (0 no effect, 100 complete control); for plant injury at 4 g/ha: 4 g ai/ha; for plant injury at 62 g/ha: 62 g ai/ha", "outline": "as §1"}, "[9]": {"test_system": "pigweed (Amaranthus retroflexus)", "test": "Test B pre/postemergence", "settings": "Amaranthus retroflexus; for pest or weed control at 4 g/ha: 4 g ai/ha; for pest or weed control at 62 g/ha: 62 g ai/ha", "outline": "as §1"}, "[10]": {"test_system": "crabgrass (Digitaria sanguinalis)", "test": "Test B pre/postemergence", "settings": "Digitaria sanguinalis; for pest or weed control at 4 g/ha: 4 g ai/ha; for pest or weed control at 62 g/ha: 62 g ai/ha", "outline": "as §1"}, "[11]": {"test_system": "blackgrass (Alopecurus myosuroides)", "test": "Test B postemergence", "settings": "Alopecurus myosuroides, post-emergence, scale 0 to 100 (0 no effect, 100 complete control), read-out: Blackgrass plant response rating", "outline": "as §1"}, "wild oat (Avena fatua)": {"test_system": "wild oat (Avena fatua)", "test": "Test B postemergence", "settings": "Avena fatua, post-emergence, scale 0 to 100 (0 no effect, 100 complete control), read-out: Oat, Wild plant response rating", "outline": "as §1"}, "[12]": {"settings": "post-emergence, Postemergence, scale 0 to 100 (0 no effect, 100 complete control), read-out: Morningglory plant response rating"}, "[13]": {"settings": "post-emergence, Postemergence, scale 0 to 100 (0 no effect, 100 complete control), read-out: Velvetleaf plant response rating"}, "[14]": {"settings": "post-emergence, Postemergence, scale 0 to 100 (0 no effect, 100 complete control), read-out: Surinam Grass plant response rating"}, "[15]": {"settings": "post-emergence, Postemergence, read-out: Barnyardgrass plant response rating"}, "[16]": {"settings": "pre-emergence, Preemergence, read-out: Plant response rating, Barnyardgrass"}, "[17]": {"settings": "post-emergence, Postemergence, scale 0 to 100 (0 no effect, 100 complete control), read-out: Foxtail, Giant plant response rating"}, "[18]": {"settings": "post-emergence, Postemergence, scale 0 to 100 (0 no effect, 100 complete control), read-out: Lambsquarters plant response rating"}, "[19]": {"settings": "post-emergence, Postemergence, scale 0 to 100 (0 no effect, 100 complete control), read-out: Cocklebur plant response rating"}, "[20]": {"settings": "post-emergence, Postemergence, read-out: Wheat plant response rating"}, "[21]": {"settings": "pre-emergence, Preemergence, read-out: Plant response rating, Wheat"}, "[22]": {"settings": "post-emergence, Postemergence, scale 0 to 100 (0 no effect, 100 complete control), read-out: Pigweed plant response rating"}, "[23]": {"settings": "post-emergence, Postemergence, scale 0 to 100 (0 no effect, 100 complete control), read-out: Crabgrass plant response rating"}}, "note": "Read-outs that look alike come from different tables or passages of the source.", "data": [{"smiles": "Nc1nc(-c2ccc(Cl)cc2)nc(C(=O)O)c1Cl", "note": "[Compound 65, 6-amino-5-chloro-2-(4-chlorophenyl)-4-pyrimidinecarboxylic acid]", "values": [{"measurement": "pest or weed control at 4 g/ha", "setting": "[1]; [12]", "result": 70, "unit": "%"}, {"measurement": "pest or weed control at 62 g/ha", "setting": "[1]; [12]", "result": 80, "unit": "%"}, {"measurement": "pest or weed control at 4 g/ha", "setting": "[1]; pre-emergence, Preemergence, scale 0 to 100 (0 no effect, 100 complete control), read-out: Plant response rating, Morningglory", "result": 0, "unit": "%"}, {"measurement": "pest or weed control at 62 g/ha", "setting": "[1]; pre-emergence, Preemergence, scale 0 to 100, 0 no effect, 100 complete control, read-out: Plant response rating, Morningglory", "result": 30, "unit": "%"}, {"measurement": "pest or weed control at 4 g/ha", "setting": "[2]; [13]", "result": 50, "unit": "%"}, {"measurement": "pest or weed control at 62 g/ha", "setting": "[2]; [13]", "result": 90, "unit": "%"}, {"measurement": "pest or weed control at 4 g/ha", "setting": "[2]; pre-emergence, Preemergence, scale 0 to 100 (0 no effect, 100 complete control), read-out: Plant response rating, Velvetleaf", "result": 0, "unit": "%"}, {"measurement": "pest or weed control at 62 g/ha", "setting": "[2]; pre-emergence, Preemergence, scale 0 to 100, 0 no effect, 100 complete control, read-out: Plant response rating, Velvetleaf", "result": 70, "unit": "%"}, {"measurement": "pest or weed control at 4 g/ha", "setting": "[3]; [14]", "result": 20, "unit": "%"}, {"measurement": "pest or weed control at 62 g/ha", "setting": "[3]; [14]", "result": 80, "unit": "%"}, {"measurement": "pest or weed control at 4 g/ha", "setting": "[3]; pre-emergence, Preemergence, scale 0 to 100 (0 no effect, 100 complete control), read-out: Plant response rating, Surinam Grass", "result": 0, "unit": "%"}, {"measurement": "pest or weed control at 62 g/ha", "setting": "[3]; pre-emergence, Preemergence, scale 0 to 100, 0 no effect, 100 complete control, read-out: Plant response rating, Surinam Grass", "result": 40, "unit": "%"}, {"measurement": "plant injury at 4 g/ha", "setting": "corn (Zea mays); post-emergence, Postemergence, 4 g ai/ha, scale 0 to 100 (0 no effect, 100 complete control), read-out: Corn plant response rating", "result": 10, "unit": "%"}, {"measurement": "plant injury at 62 g/ha", "setting": "corn (Zea mays); post-emergence, Postemergence, 62 g ai/ha, scale 0 to 100 (0 no effect, 100 complete control), read-out: Corn plant response rating", "result": 80, "unit": "%"}, {"measurement": "Corn plant response rating (crop injury, 0 = no effect, 100 = complete kill) at 4 g/ha", "setting": "corn (Zea mays); pre-emergence, Preemergence, 4 g ai/ha, scale 0 to 100 (0 no effect, 100 complete control)", "result": 0, "unit": "%"}, {"measurement": "Corn plant response rating (crop injury, 0 = no effect, 100 = complete kill) at 62 g/ha", "setting": "corn (Zea mays); pre-emergence, Preemergence, 62 g ai/ha, scale 0 to 100, 0 no effect, 100 complete control", "result": 0, "unit": "%"}, {"measurement": "pest or weed control at 4 g/ha", "setting": "[4]; [15]", "result": 20, "unit": "%"}, {"measurement": "pest or weed control at 62 g/ha", "setting": "[4]; [15]", "result": 70, "unit": "%"}, {"measurement": "pest or weed control at 4 g/ha", "setting": "[4]; [16]", "result": 0, "unit": "%"}, {"measurement": "pest or weed control at 62 g/ha", "setting": "[4]; [16]", "result": 40, "unit": "%"}, {"measurement": "pest or weed control at 4 g/ha", "setting": "[5]; [17]", "result": 40, "unit": "%"}, {"measurement": "pest or weed control at 62 g/ha", "setting": "[5]; [17]", "result": 70, "unit": "%"}, {"measurement": "pest or weed control at 4 g/ha", "setting": "[5]; pre-emergence, Preemergence, scale 0 to 100 (0 no effect, 100 complete control), read-out: Plant response rating, Foxtail, Giant", "result": 0, "unit": "%"}, {"measurement": "pest or weed control at 62 g/ha", "setting": "[5]; pre-emergence, Preemergence, scale 0 to 100, 0 no effect, 100 complete control, read-out: Plant response rating, Foxtail, Giant", "result": 30, "unit": "%"}, {"measurement": "pest or weed control at 4 g/ha", "setting": "[6]; [18]", "result": 80, "unit": "%"}, {"measurement": "pest or weed control at 62 g/ha", "setting": "[6]; [18]", "result": 100, "unit": "%"}, {"measurement": "pest or weed control at 4 g/ha", "setting": "[6]; pre-emergence, Preemergence, scale 0 to 100 (0 no effect, 100 complete control), read-out: Plant response rating, Lambsquarters", "result": 30, "unit": "%"}, {"measurement": "pest or weed control at 62 g/ha", "setting": "[6]; pre-emergence, Preemergence, scale 0 to 100, 0 no effect, 100 complete control, read-out: Plant response rating, Lambsquarters", "result": 90, "unit": "%"}, {"measurement": "pest or weed control at 4 g/ha", "setting": "[7]; [19]", "result": 80, "unit": "%"}, {"measurement": "pest or weed control at 62 g/ha", "setting": "[7]; [19]", "result": 100, "unit": "%"}, {"measurement": "pest or weed control at 4 g/ha", "setting": "[7]; pre-emergence, Preemergence, scale 0 to 100 (0 no effect, 100 complete control), read-out: Plant response rating, Cocklebur", "result": 10, "unit": "%"}, {"measurement": "pest or weed control at 62 g/ha", "setting": "[7]; pre-emergence, Preemergence, scale 0 to 100, 0 no effect, 100 complete control, read-out: Plant response rating, Cocklebur", "result": 80, "unit": "%"}, {"measurement": "plant injury at 4 g/ha", "setting": "[8]; [20]", "result": 0, "unit": "%"}, {"measurement": "plant injury at 62 g/ha", "setting": "[8]; [20]", "result": 50, "unit": "%"}, {"measurement": "plant injury at 4 g/ha", "setting": "[8]; [21]", "result": 20, "unit": "%"}, {"measurement": "plant injury at 62 g/ha", "setting": "[8]; [21]", "result": 80, "unit": "%"}, {"measurement": "pest or weed control at 4 g/ha", "setting": "[9]; [22]", "result": 70, "unit": "%"}, {"measurement": "pest or weed control at 62 g/ha", "setting": "[9]; [22]", "result": 100, "unit": "%"}, {"measurement": "pest or weed control at 4 g/ha", "setting": "[9]; pre-emergence, Preemergence, scale 0 to 100 (0 no effect, 100 complete control), read-out: Plant response rating, Pigweed", "result": 20, "unit": "%"}, {"measurement": "pest or weed control at 62 g/ha", "setting": "[9]; pre-emergence, Preemergence, scale 0 to 100, 0 no effect, 100 complete control, read-out: Plant response rating, Pigweed", "result": 100, "unit": "%"}, {"measurement": "pest or weed control at 4 g/ha", "setting": "[10]; [23]", "result": 20, "unit": "%"}, {"measurement": "pest or weed control at 62 g/ha", "setting": "[10]; [23]", "result": 80, "unit": "%"}, {"measurement": "pest or weed control at 4 g/ha", "setting": "[10]; pre-emergence, Preemergence, scale 0 to 100 (0 no effect, 100 complete control), read-out: Plant response rating, Crabgrass", "result": 20, "unit": "%"}, {"measurement": "pest or weed control at 62 g/ha", "setting": "[10]; pre-emergence, Preemergence, scale 0 to 100, 0 no effect, 100 complete control, read-out: Plant response rating, Crabgrass", "result": 70, "unit": "%"}, {"measurement": "pest or weed control at 4 g/ha", "setting": "[11]; 4 g ai/ha", "result": 20, "unit": "%"}, {"measurement": "pest or weed control at 62 g/ha", "setting": "[11]; 62 g ai/ha", "result": 70, "unit": "%"}, {"measurement": "pest or weed control at 4 g/ha", "setting": "wild oat (Avena fatua); 4 g ai/ha", "result": 0, "unit": "%"}, {"measurement": "pest or weed control at 62 g/ha", "setting": "wild oat (Avena fatua); 62 g ai/ha", "result": 40, "unit": "%"}]}]}
